Legend:
[1] = after processing, one cycle at 30,000 Psi
[2] = one cycle at 30,000 Psi
Description: The processed EpiBit were tested for stability and removal of isopropyl alcohol using FT-IR spectrometer, spectrum 100 (PerkinElmer, Waltham, Mass.) scanned from 4000-650 cm^−1.

[3] = one cycle at 30,000 Psi; remark: listed apart in the source
Description: Also, the processed EpiBit were tested for purity, stability, and crystallinity changes using Differential Scanning calorimetry (DSC) 4000 (PerkinElmer, Waltham, Mass.) that was calibrated using an indium standard and heated from 30 to 300° C. at rate of 10° C./min and with a nitrogen purge of 20 mL/min.

[4] = Description: The average particles size (by volume) of EpiBit before processing was measured using laser diffraction technique using Mastersizer (Malvern Instruments Inc, Westborough, Mass.).
[5] = EpiBit before processing, by volume, n=6, text
[6] = EpiBit before processing, by volume, listed as EpiBit crystals before processing

Compound | particles size distribution by intensity ([1]; n=3) [μm] | particles size distribution by volume ([1]; n=3) [μm] | Z-potential ([1]; listed as EpiBit crystals after processing) [mV] | degradation after processing (FT-IR spectra before and after) [2] | degradation or crystallinity change after processing (DSC) [3] | 10th percentile (Dv0.1) particle size [4, 5] [nm] | median (Dv0.5) particle size [4, 5] [nm] | D (4, 3) mean volume particle size [4, 6] [μm] | D(0.9) particle size [4, 6] [μm] | reduction of particles size of EpiBit crystals ([4]; after versus before processing)
CNC[C@H](O)c1ccc(O)c(O)c1.O=C(O)C(O)C(O)C(=O)O [EpiBit After Processing, epinephrine bitartrate microcrystals] | 2.4±0.4 | 2.5±0.4 | −4.5±1.4 | no evidence of EpiBit degradation after processing | no evidence of EpiBit degradation or crystallinity change after processing |  |  |  |  | 
CNC[C@H](O)c1ccc(O)c(O)c1.O=C(O)C(O)C(O)C(=O)O [EpiBit Before Processing, (−)-Epinephrine (+) bitartrate] |  |  |  |  |  | 39.8±3.0 | 113.6±9.1 | 131.8±10.5 | 254.8±20.1 | up to 55 folds

From US10159656B2, “Methods for use of epinephrine fine particles for treatment of conditions responsive to epinephrine” (NOVA SOUTHEASTERN UNIVERSITY, priority 2013, dated 2018)
